Measured values: patent publication US20070092444A1, “Inhibition of inward sodium currents in cancer” (priority 2003, published 2007)
“Also recorded” adds a separate entry of the source.

Key:
[1] = system: constitutive amiloride-sensitive inward Na^+ current in high-grade glioma (GBM) cells; test: Whole-cell patch clamp, freshly resected and primary cultured high-grade glioma (Grade III/IV, GBM) cells; type: cell-based, human
Text: (§1) FIGS. 2A-C show representative whole-cell patch clamp recordings.
(§2) FIGS. 4A and B show summary I-V curves of freshly resected normal astrocytes (FIG. 4A) and GBM cells (FIG. 4B). Inward currents (−60 mV) were −7.5±1.2 pA (normal) and −43.8±14.5 pA (GBM). Outward currents (+40 mV) averaged 42.2±2.4 pA and 47.2±12.5 pA for normal and GBMs, respectively. FIGS. 4C and D show summary amiloride-sensitive (difference) currents of freshly resected normal astrocytes (FIG. 4C) and GBM cells (FIG. 4D).
(§3) A constitutive amiloride-sensitive inward Na^+ conductance has been reported in human high-grade glioma cells. […] These inward Na^+ currents were not present in normal astrocytes or in low-grade astrocytomas (e.g., pilocytic astrocytomas). However, the composition of the channels responsible for the inward Na^+ conductance has not been reported. FIGS. 2A-C show representative whole cell patch-clamp measurements on tissue derived from a freshly resected human glioblastoma multiforme (GBM; WHO grade IV), normal astrocytes obtained from patients undergoing surgery for intractable epilepsy, and primary cultures of different grade glial tumors. […] However, there was no significant inward Na^+ current in normal astrocytes and Grades I and II astrocytoma cells (FIG. 2C).
Summary current-voltage (I-V) curves are presented for normal astrocytes and GBM cells in FIG. 4A and FIG. 4B, respectively, while difference I-V curves for normal astrocytes and GBM cells are presented in FIG. 4C and FIG. 4D, respectively. The GBM cells are depolarized by an average of 31 mV compared to the normal astrocytes under these recording conditions. The depolarized zero current membrane potential is due to the presence of an enhanced Na^+ conductance as is shown in the difference I-V curves.
(§4) FIG. 19A show representative whole-cell patch clamp recordings of ZR-75-1 and SKMEL-2 cells in the basal state.

[2] = system: whole-cell currents of normal human astrocytes; test: Whole-cell patch clamp, normal human astrocytes; type: cell-based
Text: as §1, §2
as §3, with “2C). […]” for “2C).”

[3] = system: inward Na^+ currents in SK-MG cells; test: Whole-cell patch clamp, SK-MG glioma cells; type: cell-based, human
Experimental: (§5) FIGS. 7A-7C show representative whole-cell patch clamp recordings.
(§6) The amiloride-sensitive inward Na^+ currents are measured regardless of whether ASIC2 is absent or present (FIGS. 7A-D). Whole-cell patch clamp recordings were obtained from U87-MG, SK-MG, and D54-MG glioma cells in the basal state. […] This inhibition of the inward current occurred regardless of the absence or presence of ASIC2 mRNA (FIG. 7D) (as detected by RT-PCR as described above).
as §4

[4] = system: inward Na^+ currents in U87-MG cells; test: Whole-cell patch clamp, U87-MG glioma cells; type: cell-based, human
Experimental: as §5, §6, §4

[5] = system: constitutive inward Na^+ current of ZR-75-1 breast carcinoma cells; test: Whole-cell patch clamp, ZR-75-1 breast carcinoma cells; type: cell-based
Text: (§7) FIGS. 5A-5C show representative whole-cell patch clamp recordings.
(§8) FIGS. 19A-19C show representative whole-cell patch clamp recordings.
(§9) A constitutive amiloride-sensitive inward Na^+ conductance was also observed in the breast carcinoma cell line ZR-75-1 and the melanoma cell line SKMEL-2. FIGS. 5A-C show representative whole cell patch-clamp measurements on ZR-75-1 cells and SKMEL-2 cells.
as §4

[6] = system: constitutive inward Na^+ current of SKMEL-2 melanoma cells; test: Whole-cell patch clamp, SKMEL-2 melanoma cells; type: cell-based
Text: as §7, §8, §9, §4

[7] = target: T1, ASIC2 (Homo sapiens, UniProt Q16515); test: Acid-activated currents in voltage-clamped Xenopus oocytes expressing ASIC2; type: cell-based; set-up: expressed in transfected cells; host or cells: Xenopus oocytes (cRNA injection); conditions: pHo 4.0, −60 mV
T1 sequence (Q16515 1-512): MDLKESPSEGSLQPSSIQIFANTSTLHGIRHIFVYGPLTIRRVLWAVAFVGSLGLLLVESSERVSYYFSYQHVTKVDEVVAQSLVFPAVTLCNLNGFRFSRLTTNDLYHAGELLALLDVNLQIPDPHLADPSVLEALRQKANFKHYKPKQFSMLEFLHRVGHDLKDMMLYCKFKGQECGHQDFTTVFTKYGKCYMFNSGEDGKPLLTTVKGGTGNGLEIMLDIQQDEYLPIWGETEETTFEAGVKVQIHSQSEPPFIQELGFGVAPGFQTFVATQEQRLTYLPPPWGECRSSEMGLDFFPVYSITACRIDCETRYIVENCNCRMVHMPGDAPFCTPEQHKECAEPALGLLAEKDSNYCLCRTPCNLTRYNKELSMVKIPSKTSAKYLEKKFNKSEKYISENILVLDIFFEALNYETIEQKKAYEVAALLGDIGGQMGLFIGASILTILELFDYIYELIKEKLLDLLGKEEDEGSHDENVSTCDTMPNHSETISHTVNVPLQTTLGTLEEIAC
Text: FIGS. 8A-C show acid-activated ASIC currents in Xenopus oocytes. ASIC 2 (FIG. 8A), ASIC1 (FIG. 8B) and the combination of ASIC2 and ASIC1 (FIG. 8C) were examined. […] Each oocyte served as its own control.
(§10) Membrane potential was held at −60 mV, and the pHo was step decreased to 4.0 for 10 s, and then returned to 7.4 for 30 s before repeating the sequence.
Xenopus oocytes were used to express ASIC1 and ASIC2 mRNA individually and in combination. Oocyte preparation, cRNA injection, and two-electrode voltage clamp recordings were performed as described (33,67-69).
as §10

Compound: Psalmotoxin 1 [PcTX1]
- block of constitutive inward Na^+ current ([1]; 10 nM peptide, freshly resected GBM): blocked
- block of inward basally activated currents ([1]; primary cultured GBM): similarly blocked
- effect on whole-cell currents ([2]; PcTX1 (10 nM, FIG. 18B), normal human astrocytes): without effect
- block of constitutive inward Na^+ current ([3]; 10 nM peptide): blocked
- block of inward basally activated currents [4]: similarly blocked
- block of constitutive inward Na^+ current ([5]; 10 nM synthetic PcTX1): blocked
- block of constitutive inward Na^+ current ([6]; 10 nM synthetic PcTX1): blocked
- block of acid-induced inward currents ([7]; 1 nM peptide (FIG. 20)): not those inward Na^+ currents mediated by ASIC2; also recorded: not the inward currents mediated by ASIC2

Compound: N=C(N)NC(=O)c1nc(Cl)c(N)nc1N [amiloride]
- inhibition of inward Na^+ currents ([1]; 100 μM amiloride, Grade III and IV tumor cells, GBM): completely inhibited; also recorded: blocked; also recorded: significantly inhibited
- effect on currents ([2]; 100 μM amiloride, normal astrocytes): did not affect
- inhibition of inward Na^+ currents ([3]; 100 μM amiloride): inhibited; also recorded: likewise blocked
- inhibition of inward Na^+ currents ([4]; 100 μM amiloride): inhibited; also recorded: likewise blocked
- inhibition of inward currents ([5]; 100 μM amiloride): completely inhibited
- inhibition of inward currents ([6]; 100 μM amiloride): completely inhibited
- inhibition of acid-activated currents ([7]; 400 μM amiloride): inhibited
